Experimental data as given in patent US20240174603A1 (Rappta Therapeutics Oy, priority 2021, published 2024).

Test system: LNCaP cells
Assay: LNCaP cell viability assay (MTS)
Format: cell-based
Conditions: Homo sapiens, LNCaP cell line
Method in brief: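 LNCaP cells (5000/well) treated 24 h after plating with compound at 1–80 µM for 48 h. Relative cell number read by MTS; GI50 from four-parameter variable-slope log(inhibitor) fit with bottom constrained to zero.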

SMILES | GI50 (LNCaP, 48 h) [µM] | GI50 (48 hours) [µM]
CN(C)CC(NS(=O)(=O)CCc1ccccc1)c1ccc(Cl)c(Cl)c1 (stereo not drawn) [Compound 136, N-(1-(3,4-dichlorophenyl)-2-(dimethylamino)ethyl)-2-phenylethane-1-sulfonamide] | 24.3 | –
CCCc1ccc(S(=O)(=O)NC(CN(C)C)c2ccc(Cl)c(Cl)c2)cc1 (stereo not drawn) [Compound 137, N-(1-(3,4-dichlorophenyl)-2-(dimethylamino)ethyl)-4-propylbenzenesulfonamide] | 12.3 | –
CN(C)CC(NS(=O)(=O)c1ccc(Oc2ccccc2)cc1)c1ccc(Cl)c(Cl)c1 (stereo not drawn) [Compound 138, N-(1-(3,4-dichlorophenyl)-2-(dimethylamino)ethyl)-4-phenoxybenzenesulfonamide] | 10.5 | –
CN(C)CC(NS(=O)(=O)c1ccc(Oc2ccc(C(F)(F)F)cc2)cc1)c1ccc(Cl)c(Cl)c1 (stereo not drawn) [Compound 139, N-(1-(3,4-dichlorophenyl)-2-(dimethylamino)ethyl)-4-(4-(trifluoromethyl)phenoxy)benzenesulfonamide] | 10.2 | –
CN(C)CC(NS(=O)(=O)c1ccc(-c2ccccc2)cc1)c1ccc(Cl)c(Cl)c1 (stereo not drawn) [Compound 143, N-(1-(3,4-dichlorophenyl)-2-(dimethylamino)ethyl)-[1,1′-biphenyl]-4-sulfonamide] | 11.2 | –
CN(C)CC(NS(=O)(=O)c1cccc(-c2ccccc2)c1)c1ccc(Cl)c(Cl)c1 (stereo not drawn) [Compound 144, N-(1-(3,4-dichlorophenyl)-2-(dimethylamino)ethyl)-[1,1′-biphenyl]-3-sulfonamide] | 14.4 | –
CN(C)CC(NS(=O)(=O)c1cccc2ccccc12)c1ccc(Cl)c(Cl)c1 (stereo not drawn) [Compound 145, N-(1-(3,4-dichlorophenyl)-2-(dimethylamino)ethyl)naphthalene-1-sulfonamide] | 21.7 | –
CN(C)CC(NS(=O)(=O)c1ccc2ccccc2c1)c1ccc(Cl)c(Cl)c1 (stereo not drawn) [Compound 146, N-(1-(3,4-dichlorophenyl)-2-(dimethylamino)ethyl)naphthalene-2-sulfonamide] | 23.8 | –
CN(C)CC(NS(=O)(=O)c1ccc(OC(F)(F)F)cc1)c1ccc(Cl)c(Cl)c1 (stereo not drawn) [Compound 147, N-(1-(3,4-dichlorophenyl)-2-(dimethylamino)ethyl)-4-(trifluoromethoxy)benzenesulfonamide] | 19.5 | –
Cc1ccccc1C(CN(C)C)NS(=O)(=O)c1ccc(OC(F)(F)F)cc1 (stereo not drawn) [Compound 150, N-(2-(dimethylamino)-1-(o-tolyl)ethyl)-4-(trifluoromethoxy)benzenesulfonamide] | 59.6 | –
CN(C)CC(NS(=O)(=O)c1ccc(OC(F)(F)F)cc1Cl)c1ccc(Cl)c(Cl)c1 (stereo not drawn) [Compound 151, 2-chloro-N-(1-(3,4-dichlorophenyl)-2-(dimethylamino)ethyl)-4-(trifluoromethoxy)benzenesulfonamide] | 23.6 | –
CN(C)CC(NS(=O)(=O)c1ccc(OC(F)(F)F)c(Cl)c1)c1ccc(Cl)c(Cl)c1 (stereo not drawn) [Compound 152, 3-chloro-N-(1-(3,4-dichlorophenyl)-2-(dimethylamino)ethyl)-4-(trifluoromethoxy)benzenesulfonamide] | 12.1 | –
CN(C)CC(NS(=O)(=O)c1ccc(OC(F)F)cc1)c1ccc(Cl)c(Cl)c1 (stereo not drawn) [Compound 153, N-(1-(3,4-dichlorophenyl)-2-(dimethylamino)ethyl)-4-(difluoromethoxy)benzenesulfonamide] | 45.7 | –
CN(C)CC(NS(=O)(=O)c1ccc(OC2CC2)cc1)c1ccc(Cl)c(Cl)c1 (stereo not drawn) [Compound 154, 4-cyclopropoxy-N-(1-(3,4-dichlorophenyl)-2-(dimethylamino)ethyl)benzenesulfonamide] | – | 53.8
CN(C)CC(NS(=O)(=O)c1ccc(OC(F)(F)F)cc1N)c1ccc(Cl)c(Cl)c1 (stereo not drawn) [Compound 155, 2-amino-N-(1-(3,4-dichlorophenyl)-2-(dimethylamino)ethyl)-4-(trifluoromethoxy)benzenesulfonamide] | 21.3 | –
CN(C)CC(NS(=O)(=O)c1ccc2c(c1)OC(F)(F)O2)c1ccc(Cl)c(Cl)c1 (stereo not drawn) [Compound 156, N-(1-(3,4-dichlorophenyl)-2-(dimethylamino)ethyl)-2,2-difluorobenzo[d][1,3]dioxole-5-sulfonamide] | 24.9 | –
CN(C)CC(NS(=O)(=O)c1ccc(OC(F)(F)F)nc1)c1ccc(Cl)c(Cl)c1 (stereo not drawn) [Compound 157, N-(1-(3,4-dichlorophenyl)-2-(dimethylamino)ethyl)-6-(trifluoromethoxy)pyridine-3-sulfonamide] | – | 17.7
CN(C)CC(NS(=O)(=O)c1ccc(Cl)cc1F)c1ccc(Cl)c(Cl)c1 (stereo not drawn) [Compound 160, 4-chloro-N-(1-(3,4-dichlorophenyl)-2-(dimethylamino)ethyl)-2-fluorobenzenesulfonamide] | 58.5 | –
CN(C)CC(NS(=O)(=O)c1ccc(C(F)(F)F)cc1)c1ccc(Cl)c(Cl)c1 (stereo not drawn) [Compound 161, N-(1-(3,4-dichlorophenyl)-2-(dimethylamino)ethyl)-4-(trifluoromethyl)benzenesulfonamide] | 25.4 | –
CN(C)CC(NS(=O)(=O)c1cccc(C(F)(F)F)c1)c1ccc(Cl)c(Cl)c1 (stereo not drawn) [Compound 162, N-(1-(3,4-dichlorophenyl)-2-(dimethylamino)ethyl)-3-(trifluoromethyl)benzenesulfonamide] | 52.7 | –

SMILES | GI50 (LNCaP, 48 h) [µM] | GI50 (48 hours) [µM]
CN(C)CC(NS(=O)(=O)c1cccc(Cl)c1)c1ccc(Cl)c(Cl)c1 (stereo not drawn) [Compound 163, 3-chloro-N-(1-(3,4-dichlorophenyl)-2-(dimethylamino)ethyl)benzenesulfonamide] | 46 | –
CN(C)CC(NS(=O)(=O)c1ccc(Cl)cc1)c1ccc(Cl)c(Cl)c1 (stereo not drawn) [Compound 164, 4-chloro-N-(1-(3,4-dichlorophenyl)-2-(dimethylamino)ethyl)benzenesulfonamide] | 28.2 | –
CN(C)CC(NS(=O)(=O)c1ccc(OC(F)(F)F)cc1)c1cccc(Cl)c1 (stereo not drawn) [Compound 166, N-(1-(3-chlorophenyl)-2-(dimethylamino)ethyl)-4-(trifluoromethoxy)benzenesulfonamide] | 44.5 | –
CN(C)CC(NS(=O)(=O)c1ccc(OC(F)(F)F)cc1)c1ccc(F)c(Cl)c1 (stereo not drawn) [Compound 167, N-(1-(3-chloro-4-fluorophenyl)-2-(dimethylamino)ethyl)-4-(trifluoromethoxy)benzenesulfonamide] | 42.4 | –
CN(C)CC(NS(=O)(=O)c1ccc(OC(F)(F)F)cc1)c1ccc(Cl)c(F)c1 (stereo not drawn) [Compound 168, N-(1-(4-chloro-3-fluorophenyl)-2-(dimethylamino)ethyl)-4-(trifluoromethoxy)benzenesulfonamide] | 24.7 | –
O=S(=O)(NC(CN1CCOCC1)c1ccc(Cl)c(Cl)c1)c1ccc(OC(F)(F)F)cc1 (stereo not drawn) [Compound 169, N-(1-(3,4-dichlorophenyl)-2-morpholinoethyl)-4-(trifluoromethoxy)benzenesulfonamide] | 53.7 | –
CN(C)CC(NS(=O)(=O)/C=C/c1ccccc1)c1ccc(Cl)c(Cl)c1 (stereo not drawn) [Compound 174, (E)-N-(1-(3,4-dichlorophenyl)-2-(dimethylamino)ethyl)-2-phenylethene-1-sulfonamide] | 30.9 | –
CN(C)CC(NS(=O)(=O)c1ccc(OC(F)(F)F)c([N+](=O)[O-])c1)c1ccc(Cl)c(Cl)c1 (stereo not drawn) [Compound 175, N-(1-(3,4-dichlorophenyl)-2-(dimethylamino)ethyl)-3-nitro-4-(trifluoromethoxy)benzenesulfonamide] | 3.23 | –
CN(C)CC(NS(=O)(=O)c1ccc(OC(F)(F)F)c(N)c1)c1ccc(Cl)c(Cl)c1 (stereo not drawn) [Compound 176, 3-amino-N-(1-(3,4-dichlorophenyl)-2-(dimethylamino)ethyl)-4-(trifluoromethoxy)benzenesulfonamide] | 31.4 | –
O=S(=O)(NC(CN1CCCC1)c1ccc(Cl)cc1)c1ccc(OC(F)(F)F)cc1 (stereo not drawn) [Compound 181, N-(1-(4-chlorophenyl)-2-(pyrrolidin-1-yl)ethyl)-4-(trifluoromethoxy)benzenesulfonamide] | – | 51.4
O=S(=O)(NC(CN1CCCC1)c1ccc(Cl)c(Cl)c1)c1ccc(OC(F)(F)F)cc1 (stereo not drawn) [Compound 182, N-(1-(3,4-dichlorophenyl)-2-(pyrrolidin-1-yl)ethyl)-4-(trifluoromethoxy)benzenesulfonamide] | 24.5 | –
O=S(=O)(NC(CN1CCCCC1)c1ccc(Cl)cc1)c1ccc(OC(F)(F)F)cc1 (stereo not drawn) [Compound 183, N-(1-(4-chlorophenyl)-2-(piperidin-1-yl)ethyl)-4-(trifluoromethoxy)benzenesulfonamide] | – | 33.8
CN1CCN(CC(NS(=O)(=O)c2ccc(OC(F)(F)F)cc2)c2ccc(Cl)cc2)CC1 (stereo not drawn) [Compound 184, N-(1-(4-chlorophenyl)-2-(4-methylpiperazin-1-yl)ethyl)-4-(trifluoromethoxy)benzenesulfonamide] | 23.4 | –
CN1CCN(CC(NS(=O)(=O)c2ccc(OC(F)(F)F)cc2)c2ccc(Cl)c(Cl)c2)CC1 (stereo not drawn) [Compound 185, N-(1-(3,4-dichlorophenyl)-2-(4-methylpiperazin-1-yl)ethyl)-4-(trifluoromethoxy)benzenesulfonamide] | 12.6 | –
CN(C)CC(NS(=O)(=O)c1ccc(C(=O)Nc2ccccc2)cc1)c1ccc(Cl)c(Cl)c1 (stereo not drawn) [Compound 186, 4-(N-(1-(3,4-dichlorophenyl)-2-(dimethylamino)ethyl)sulfamoyl)-N-phenylbenzamide] | 48.2 | –
CN(C)CC(NS(=O)(=O)c1ccc(C(=O)NC2CCCCC2)cc1)c1ccc(Cl)c(Cl)c1 (stereo not drawn) [Compound 187, N-cyclohexyl-4-(N-(1-(3,4-dichlorophenyl)-2-(dimethylamino)ethyl)sulfamoyl)benzamide] | 53.6 | –
CN(C)CC(NS(=O)(=O)c1ccc(Nc2ccccc2)cc1)c1ccc(Cl)c(Cl)c1 (stereo not drawn) [Compound 188, N-(1-(3,4-dichlorophenyl)-2-(dimethylamino)ethyl)-4-(phenylamino)benzenesulfonamide] | 13.6 | –
CN(C)CC(NS(=O)(=O)c1ccc(Oc2ccccc2)cc1)c1cccc(C(F)(F)F)c1 (stereo not drawn) [Compound 189, N-(2-(dimethylamino)-1-(3-(trifluoromethyl)phenyl)ethyl)-4-phenoxybenzenesulfonamide] | 12.1 | –
CN(C)CC(NS(=O)(=O)c1ccc(Oc2ccccc2)cc1)c1ccc(Cl)cc1 (stereo not drawn) [Compound 190, N-(1-(4-chlorophenyl)-2-(dimethylamino)ethyl)-4-phenoxybenzenesulfonamide] | 11.8 | –
